{"source": "patent US20110300232A1", "about": "“EFFECTS OF NITRIC OXIDE (NO) AND iNOS ON EXPRESSION AND SIGNAL TRANSDUCTION IN CANCER AND ITS USE IN DRUG DISCOVERY AND CANCER THERAPY DESIGN” (priority 2010, published 2011)", "origin": "cited, not measured here", "key": {"HIF-α": {"system": "HIF-α", "conditions": "for effect on HIF-α expression: NO donor exposure, FIG. 4A and 4B, MCF-7"}, "[1]": {"test": "not given", "remark": "listed apart in the source"}, "p53": {"system": "p53", "conditions": "high levels of NO"}}, "data": [{"smiles": "CCN(CC)/[N+]([O-])=N/[O-].[Na+]", "note": "[DEA/NO]", "values": [{"measurement": "effect on HIF-α expression", "setting": "HIF-α", "value": "did not regulate HIF-α expression"}, {"measurement": "duration of NO level provided in media", "value": "only an hour"}]}, {"smiles": "NCCN(CCN)/[N+]([O-])=N/O", "note": "[DETA/NO]", "values": [{"measurement": "effect on HIF-α expression", "setting": "HIF-α", "value": "stabilizing the HIF-α expression"}, {"measurement": "duration of NO level provided in media", "value": "several hours"}]}, {"smiles": "[N]=O", "note": "[NO, Nitric oxide]", "values": [{"measurement": "NO concentration required for HIF-α stabilization", "setting": "HIF-α; low concentration of NO", "value": "100-200 nm"}, {"measurement": "half-life in the body", "setting": "[1]", "value": "1 to 5", "unit": "s"}, {"measurement": "NO level that stimulates p53 activation, causing apoptosis", "setting": "p53", "value": "more than 500 nm"}]}, {"smiles": "NCCCNCCCCN(CCCN)/[N+]([O-])=N/O", "note": "[Sper/NO]", "values": [{"measurement": "effect on HIF-α expression", "setting": "HIF-α", "value": "stabilizing the HIF-α expression"}, {"measurement": "duration of NO level provided in media", "value": "several hours"}]}]}
